Columns and labels:
M4 muscarinic receptor = biological target: T1, M4 muscarinic receptor (Homo sapiens, UniProt P08173); assay: Functional mobilization of intracellular calcium (FLIPR) in M4-CHO cells; format: cell-based; conditions: M4 receptor, calcium mobilization; for Emax: read-out: M4 Efficacy
T1 construct: expressed in transfected cells; host or cells: CHO (M4-CHO)
T1 sequence (P08173 1-479): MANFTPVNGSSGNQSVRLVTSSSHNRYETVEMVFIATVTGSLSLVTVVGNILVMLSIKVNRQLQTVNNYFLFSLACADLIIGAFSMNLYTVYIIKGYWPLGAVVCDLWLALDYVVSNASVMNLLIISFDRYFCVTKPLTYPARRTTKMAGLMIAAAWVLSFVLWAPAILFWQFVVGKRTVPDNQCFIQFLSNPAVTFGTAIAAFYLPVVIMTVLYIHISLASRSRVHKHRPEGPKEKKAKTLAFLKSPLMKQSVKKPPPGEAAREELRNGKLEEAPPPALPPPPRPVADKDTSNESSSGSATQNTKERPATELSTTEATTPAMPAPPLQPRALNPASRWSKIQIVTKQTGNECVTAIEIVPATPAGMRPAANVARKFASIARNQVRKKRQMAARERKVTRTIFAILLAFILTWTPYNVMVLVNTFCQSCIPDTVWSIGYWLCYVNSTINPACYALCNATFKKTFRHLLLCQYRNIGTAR
Method in brief: (§1)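 Steps: seed M1- or M4-CHO cells 18-24 hrs ahead; load calcium dye with 1 mM probenecid; add test compound (0.5% DMSO final), either alone for agonism or 15 min before EC80 carbachol for inhibition; record FLIPR fluorescence for 60 sec.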

M1 muscarinic receptor = biological target: T2, M1 muscarinic receptor (Homo sapiens, UniProt P11229); assay: Functional mobilization of intracellular calcium (FLIPR) in M1-CHO cells; format: cell-based; conditions: M1 receptor, calcium mobilization; for Emax: read-out: M1 Efficacy
T2 construct: expressed in transfected cells; host or cells: CHO (M1-CHO)
T2 sequence (P11229 1-460): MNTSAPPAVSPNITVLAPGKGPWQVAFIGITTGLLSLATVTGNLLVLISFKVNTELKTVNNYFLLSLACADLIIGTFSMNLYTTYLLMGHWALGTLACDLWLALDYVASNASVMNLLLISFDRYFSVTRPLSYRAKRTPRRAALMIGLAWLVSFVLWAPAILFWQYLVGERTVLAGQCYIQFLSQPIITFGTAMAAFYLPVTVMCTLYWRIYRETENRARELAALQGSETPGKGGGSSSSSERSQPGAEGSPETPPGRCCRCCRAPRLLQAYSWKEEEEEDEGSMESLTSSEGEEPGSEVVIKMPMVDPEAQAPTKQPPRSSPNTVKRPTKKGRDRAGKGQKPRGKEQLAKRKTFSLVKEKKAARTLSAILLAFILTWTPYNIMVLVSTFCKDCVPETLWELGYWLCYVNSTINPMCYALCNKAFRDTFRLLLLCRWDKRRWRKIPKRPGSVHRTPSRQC
Method in brief: as §1

SMILES	M4 Activity (M4 muscarinic receptor)	Emax (M4 muscarinic receptor)	M1 Activity (M1 muscarinic receptor)	Emax (M1 muscarinic receptor)	M4 Efficacy (M4 muscarinic receptor)	M1 Efficacy (M1 muscarinic receptor)
CC(=O)N1CC2(CCN(C3CCC[C@@H](C)C3)CC2)c2cc(F)ccc21 (stereo partly shown) [compound 240]	x (activity was measured to be greater than 1.0 μM)	> 85%	xx (activity was measured to be between 0.1 μM and 1.0 μM)	65 to 85%	–	–
Cc1ccc2c(c1)C1(CCN(CC3CCC4CCC3C4)CC1)CN2 (stereo not shown) [compound 241]	x (activity was measured to be greater than 1.0 μM)	> 85%	xx (activity was measured to be between 0.1 μM and 1.0 μM)	< 65%	–	–
O=C1CC2(CCN(C3CCCCCC3)CC2)c2ccccc2N1 [compound 242]	xx (activity was measured to be between 0.1 μM and 1.0 μM)	> 85%	xxx (activity was measured to be less than 0.1 μM)	65 to 85%	–	–
O=C(O[C@@H]1CCOC1)N1CC2(CCN(C3CC4CCC(C3)N4C(=O)O[C@@H]3CCOC3)CC2)c2cc(F)ccc21 (stereo partly shown) [compound 243]	x (activity was measured to be greater than 1.0 μM)	–	xxx (activity was measured to be less than 0.1 μM)	–	xx (efficacy was calculated to be between 85% and 65%)	xx (efficacy was calculated to be between 85% and 65%)
c1ccc2c(c1)NCC21CCN(C2CCC3CCC2C3)CC1 (stereo not shown) [compound 244]	x (activity was measured to be greater than 1.0 μM)	65 to 85%	xx (activity was measured to be between 0.1 μM and 1.0 μM)	65 to 85%	–	–
CCOC(=O)N1CCC(N2CCC3(CC2)CN(C(C)=O)c2ccc(C4CC4)cc23)CC1 [compound 245]	xx (activity was measured to be between 0.1 μM and 1.0 μM)	> 85%	xx (activity was measured to be between 0.1 μM and 1.0 μM)	< 65%	–	–
CC(C)C(=O)N(C)[C@H]1CC2(CCN(C[C@H]3C[C@H]4CC[C@H]3C4)CC2)c2ccccc21 [compound 246]	xx (activity was measured to be between 0.1 μM and 1.0 μM)	> 85%	xx (activity was measured to be between 0.1 μM and 1.0 μM)	< 65%	–	–
CC(C)(C)COC(=O)N1C2CCC1CC(N1CCC3(CC1)COc1ccc(F)cc13)C2 (stereo not shown) [compound 247]	x (activity was measured to be greater than 1.0 μM)	> 85%	xx (activity was measured to be between 0.1 μM and 1.0 μM)	65 to 85%	–	–
CC(=O)N1CC2(CCN(C3CCCCCCC3)CC2)c2cc(F)ccc21 [compound 248]	x (activity was measured to be greater than 1.0 μM)	< 65%	xx (activity was measured to be between 0.1 μM and 1.0 μM)	65 to 85%	–	–
CCOC(=O)N1CCC(N2CCC3(CC2)CN(CC(C)=O)c2ccc(F)cc23)CC1 [compound 249]	x (activity was measured to be greater than 1.0 μM)	65 to 85%	x (activity was measured to be greater than 1.0 μM)	65 to 85%	–	–
CCOC(=O)N1CCC(CN2CCC3(CC2)C[C@H](NC(C)=O)c2ccccc23)CC1 [compound 250]	x (activity was measured to be greater than 1.0 μM)	65 to 85%	xx (activity was measured to be between 0.1 μM and 1.0 μM)	65 to 85%	–	–
CC(=O)N1CC2(CCN(C3CC[C@@H]4CC[C@@H]3C4)CC2)c2cc(F)ccc21 (stereo partly shown) [compound 251]	x (activity was measured to be greater than 1.0 μM)	65 to 85%	xx (activity was measured to be between 0.1 μM and 1.0 μM)	65 to 85%	–	–
CCCOC(=O)N1CCC(N2CCC3(CC2)CN(C(C)=O)c2ccc(C)cc23)CC1 [compound 252]	x (activity was measured to be greater than 1.0 μM)	65 to 85%	x (activity was measured to be greater than 1.0 μM)	< 65%	–	–
CCOC(=O)N1CCC(N2CCC3(CC2)CN(C(C)=O)c2ccc(-c4ccc(C#N)cc4)cc23)CC1 [compound 253]	x (activity was measured to be greater than 1.0 μM)	65 to 85%	xx (activity was measured to be between 0.1 μM and 1.0 μM)	65 to 85%	–	–
CCOC(=O)N1CCC(N2CCC3(CC2)CN(C(=O)C2CCC2)c2ccc(F)cc23)CC1 [compound 254]	x (activity was measured to be greater than 1.0 μM)	65 to 85%	x (activity was measured to be greater than 1.0 μM)	65 to 85%	–	–
CCNC(=O)N1CC2(CCN(C3CC4CCC(C3)N4C(=O)OCC)CC2)c2cc(F)ccc21 (stereo not shown) [compound 255]	x (activity was measured to be greater than 1.0 μM)	< 65%	x (activity was measured to be greater than 1.0 μM)	< 65%	–	–
CCOC(=O)N1CCC(CN2CCC3(CC2)CN(C(C)=O)c2ccc(Cl)cc23)CC1 [compound 256]	xx (activity was measured to be between 0.1 μM and 1.0 μM)	< 65%	xx (activity was measured to be between 0.1 μM and 1.0 μM)	< 65%	–	–
Clc1ccc2c(c1)C1(CCN(C3CCOCC3)CC1)CO2 [compound 257]	x (activity was measured to be greater than 1.0 μM)	< 65%	x (activity was measured to be greater than 1.0 μM)	> 85%	–	–
O=C(OC1CCCC1)N1C2CCC1CC(N1CCC3(CCc4ccccc43)CC1)C2 (stereo not shown) [compound 258]	x (activity was measured to be greater than 1.0 μM)	< 65%	x (activity was measured to be greater than 1.0 μM)	65 to 85%	–	–
O=C1Nc2ccccc2C12CCN(C1CC3CCC1C3)CC2 (stereo not shown) [compound 259]	x (activity was measured to be greater than 1.0 μM)	< 65%	x (activity was measured to be greater than 1.0 μM)	65 to 85%	–	–
CCOC(=O)N1CCC(N2CCC3(CC2)CN(C(=O)c2ccncc2)c2ccc(F)cc23)CC1 [compound 260]	x (activity was measured to be greater than 1.0 μM)	< 65%	xxx (activity was measured to be less than 0.1 μM)	65 to 85%	–	–
CC(=O)N[C@H]1CC2(CCN(C3CCCCCCC3)CC2)c2ccccc21 [compound 261]	x (activity was measured to be greater than 1.0 μM)	< 65%	xx (activity was measured to be between 0.1 μM and 1.0 μM)	< 65%	–	–
CCOC(=O)N1CCC(N2CCC3(CC2)CN(C(=O)c2ccccc2OC)c2ccc(F)cc23)CC1 [compound 262]	x (activity was measured to be greater than 1.0 μM)	< 65%	x (activity was measured to be greater than 1.0 μM)	< 65%	–	–
C1=C[C@H]2C[C@H]1C[C@@H]2CN1CCC2(CCc3ccccc32)CC1 [compound 263]	xxx (activity was measured to be less than 0.1 μM)	< 65%	xxx (activity was measured to be less than 0.1 μM)	< 65%	–	–
COCCOC(=O)N1CCC(N2CCC3(CC2)CN(C(=O)N(C)C)c2ccc(F)cc23)CC1 [compound 265]	xx (activity was measured to be between 0.1 μM and 1.0 μM)	< 65%	xx (activity was measured to be between 0.1 μM and 1.0 μM)	< 65%	–	–
CCCOC(=O)N1CCCC(N2CCC3(CC2)CN(C(C)=O)c2ccc(F)cc23)CC1 (stereo not shown) [compound 266]	x (activity was measured to be greater than 1.0 μM)	< 65%	x (activity was measured to be greater than 1.0 μM)	< 65%	–	–
CCOC(=O)N1CCC(N2CCC3(CC2)CN(C(=O)c2ccccc2F)c2ccc(F)cc23)CC1 [compound 267]	x (activity was measured to be greater than 1.0 μM)	< 65%	x (activity was measured to be greater than 1.0 μM)	< 65%	–	–
CC(=O)N1CC2(CCN(C3CCOCC3)CC2)c2cc(F)ccc21 [compound 268]	x (activity was measured to be greater than 1.0 μM)	< 65%	x (activity was measured to be greater than 1.0 μM)	< 65%	–	–
